Experimental findings from US20090163586A1, “Bis-(Sulfonylamino) Derivatives in Therapy 205” (AstraZeneca AB, priority 2007, published 2009) are described below.

One may read the IC50 as the concentration at which inhibition is half-maximal. Read a high IC50 as lower potency.

The experiment concerns the target T1, human mPGES-1 (Homo sapiens, UniProt O14684).
T1 sequence (O14684 1-152): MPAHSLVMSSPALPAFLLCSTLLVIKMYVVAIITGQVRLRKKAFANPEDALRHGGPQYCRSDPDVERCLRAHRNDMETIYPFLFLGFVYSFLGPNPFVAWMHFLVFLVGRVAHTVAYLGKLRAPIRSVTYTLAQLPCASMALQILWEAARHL
Put plainly: Microsomal prostaglandin E synthase biochemical assay. As to conditions: microsome preparation containing human mPGES-1; PGH2 10.8 μM, GSH 2.5 mM, pH 6.8; PGE2 by HTRF; average of at least n=2. An outline of the steps: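 Human mPGES-1 microsomes at 2 μg/mL were pre-incubated 15 min with compound (60 μM to 0.002 μM) in 50 mM potassium phosphate pH 6.8 with 2.5 mM GSH. The reaction was started with 10.8 μM PGH2 and stopped after 1 minute with acidic ferric chloride/citrate. PGE2 was quantified by HTRF; IC50 is the mean of at least 2 runs.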
A general note: In TR-FRET formats the signal depends on donor and acceptor labels being close together.
With `CC(C)(C)c1ccc(CCS(=O)(=O)Nc2ccccc2S(N)(=O)=O)cc1` [Example 70, 2-[2-(4-Tert-butylphenyl)ethylsulfonylamino]benzenesulfonamide], the IC50 was found to be 220 nM. In turn, `NS(=O)(=O)c1ccccc1NS(=O)(=O)CCc1ccc(-c2ccco2)cc1` [Example 16, 2-[2-[4-(2-Furyl)phenyl]ethylsulfonylamino]benzenesulfonamide] showed a half-maximal inhibitory concentration (IC50) of 190 nM. `C/C(=C\c1ccc(Cl)cc1)S(=O)(=O)Nc1cc(F)ccc1S(N)(=O)=O` [Example 11, 2-[[(E)-1-(4-chlorophenyl)prop-1-en-2-yl]sulfonylamino]-4-fluoro-benzenesulfonamide]: the concentration for half-maximal inhibition (IC50) was determined as 590 nM. This IC50 lies about 3.1-fold higher than the previous one. `NS(=O)(=O)c1c(F)cccc1NS(=O)(=O)/C=C/c1ccccc1C(F)(F)F` [Example 89, 2-Fluoro-6-[[(E)-2-[2-(trifluoromethyl)phenyl]ethenyl]sulfonylamino]-benzenesulfonamide]: half-maximal inhibition (IC50) required 2800 nM. Against the preceding molecule, the IC50 is about 4.7-fold higher.

Take `COc1ncc(-c2cccc(S(=O)(=O)Nc3ccsc3S(N)(=O)=O)c2)cc1Cl` [Example 215, 3-[3-(5-Chloro-6-methoxy-pyridin-3-yl)-benzenesulfonylamino]-thiophene-2-sulfonic acid amide]: 740 nM corresponded to half-maximal inhibition (IC50). For `NS(=O)(=O)c1ccccc1NS(=O)(=O)/C=C/c1ccccc1O` [Example 225, 2-[2-(2-Hydroxy-phenyl)-ethenesulfonylamino]-benzenesulfonamide] the value was 6300 nM; for `NS(=O)(=O)c1ccc(F)cc1NS(=O)(=O)/C=C/c1ccccc1C(F)(F)F` [Example 93, 4-Fluoro-2-[[(E)-2-[2-(trifluoromethyl)phenyl]ethenyl]sulfonylamino]-benzenesulfonamide], 650 nM. `COc1ccc(Br)cc1/C=C/S(=O)(=O)Nc1ccc(F)cc1S(N)(=O)=O` [Example 27, 2-[[(E)-2-(5-Bromo-2-methoxy-phenyl)ethenyl]sulfonylamino]-5-fluoro-benzenesulfonamide] came in with an IC50 of 270 nM. This IC50 is about 2.4-fold lower than that of the molecule before.

`NS(=O)(=O)c1ccccc1NS(=O)(=O)/C=C/c1ccccc1OC(F)(F)F` [Example 221, (E)-2-(2-(2-(trifluoromethoxy)phenyl)vinylsulfonamido)benzenesulfonamide] gave an IC50 of 420 nM. This IC50 is about 1.6-fold higher than that of the molecule before. As for `Cc1cc(NC(=O)Nc2ccc(Cl)cc2)ccc1S(=O)(=O)Nc1ccccc1S(N)(=O)=O` [Example 176, 3-(4-Chlorophenyl)-1-[3-methyl-4-[(2-sulfamoylphenyl)sulfamoyl]phenyl]urea], the figure is 900 nM; as for `NS(=O)(=O)c1c(F)cccc1NS(=O)(=O)/C=C/c1ccc(-c2ccco2)cc1` [Example 36, 2-Fluoro-6-[[(E)-2-[4-(2-furyl)phenyl]ethenyl]sulfonylamino]benzenesulfonamide], 57 nM; as for `NS(=O)(=O)c1ccccc1NS(=O)(=O)Cc1ccc(Cl)cc1` [Example 112, 2-[(4-Chlorophenyl)methylsulfonylamino]benzenesulfonamide], 6100 nM. For `NS(=O)(=O)c1cc(F)ccc1NS(=O)(=O)/C=C/c1cccc(Cl)c1` [Example 51, 2-[[(E)-2-(3-Chlorophenyl)ethenyl]sulfonylamino]-5-fluoro-benzenesulfonamide], the IC50 was 4900 nM.

Take `COc1cc(NS(=O)(=O)c2cccc(Cl)c2Cl)c(S(N)(=O)=O)cc1F` [Example 230, 2,3-Dichloro-N-(4-fluoro-5-methoxy-2-sulfamoylphenyl)benzenesulfonamide]: the IC50 was found to be 6100 nM.

Take `CN1CCOc2cc(S(=O)(=O)Nc3ccccc3S(N)(=O)=O)ccc21` [Example 123, 7-Methyl-N-(2-sulfamoylphenyl)-10-oxa-7-azabicyclo[4.4.0]deca-1,3,5-triene-3-sulfonamide]: half-maximal inhibition (IC50) was put at 9300 nM.

`NS(=O)(=O)c1ccc(F)cc1NS(=O)(=O)/C=C/c1ccc(Cl)c(Cl)c1` [Example 23, 2-[[(E)-2-(3,4-Dichlorophenyl)ethenyl]sulfonylamino]-4-fluoro-benzenesulfonamide]: half-maximal inhibition (IC50) was put at 270 nM. For `C=C(CS(=O)(=O)Nc1ccccc1S(N)(=O)=O)c1ccc(Cl)cc1` [Example 87, 2-[2-(4-Chlorophenyl)prop-2-enylsulfonylamino]benzenesulfonamide], 2400 nM corresponded to half-maximal inhibition (IC50). For the molecule `NS(=O)(=O)c1ccccc1NS(=O)(=O)/C=C/c1ccc2ccccc2c1` [Example 84, 2-[[(E)-2-Naphthalen-2-ylethenyl]sulfonylamino]benzenesulfonamide], half-maximal inhibition (IC50) was put at 190 nM. This IC50 is about 13-fold lower than that of the molecule before. `COc1ccccc1/C=C/S(=O)(=O)Nc1cccc(F)c1S(N)(=O)=O` [Example 57, 2-Fluoro-6-[[(E)-2-(2-methoxyphenyl)ethenyl]sulfonylamino]benzenesulfonamide]: the IC50 amounted to 620 nM. As for `NS(=O)(=O)c1ccccc1NS(=O)(=O)CCc1ccc(OC(F)F)cc1` [Example 19, 2-[2-[4-(Difluoromethoxy)phenyl]ethylsulfonylamino]benzenesulfonamide], the figure is 1400 nM; as for `COc1cc(Cl)ccc1CCS(=O)(=O)Nc1ccc(C#N)cc1S(N)(=O)=O` [Example 182, 2-(2-(4-Chloro-2-methoxyphenyl)ethylsulfonamido)-5-cyanobenzenesulfonamide], 520 nM. Take `NS(=O)(=O)c1c(F)cccc1NS(=O)(=O)/C=C/c1ccc(Br)cc1` [Example 91, 2-[[(E)-2-(4-Bromophenyl)ethenyl]sulfonylamino]-6-fluoro-benzenesulfonamide]: the midpoint of inhibition, the IC50, lay at 310 nM. On to `NS(=O)(=O)c1ccccc1NS(=O)(=O)CCc1ccc(-c2cc3ccccc3o2)cc1` [Example 1, 2-[2-(4-Benzofuran-2-ylphenyl)ethylsulfonylamino]benzenesulfonamide], for which the IC50 amounted to 130 nM. This IC50 lies about 2.4-fold lower than the previous one. With `NS(=O)(=O)c1ccccc1NS(=O)(=O)c1cccc(F)c1F` [Example 146, 2,3-Difluoro-N-(2-sulfamoylphenyl)benzenesulfonamide], the IC50 turned out to be 4700 nM.
